Results published in ChEMBL document CHEMBL1125620, “Synthesis and biological evaluation of a series of substituted N-alkoxyimides and -amides as potential atypical antipsychotic agents” (J Med Chem, 1991).

Assays:
[1] = molecular target: Serotonin 2 (5-HT2) receptor (Rattus norvegicus, UniProt P30994+P08909+P14842); test: Compound was measured for affinity at 5-hydroxytryptamine 2 receptor in rat cortical by [3H]spiroperidol displacement.
Mus musculus = test: Inhibition of apomorphine induced mouse climbing, administered intraperitoneally; assay type: functional; settings: ip
[2] = molecular target: T1, 5-hydroxytryptamine receptor 1A (Rattus norvegicus, UniProt P19327); test: Affinity for 5-hydroxytryptamine 1A receptor labeled with [3H]8-OH-DPAT radioligand in hippocampus tissue; assay type: tissue-based
T1 sequence (P19327 whole entry): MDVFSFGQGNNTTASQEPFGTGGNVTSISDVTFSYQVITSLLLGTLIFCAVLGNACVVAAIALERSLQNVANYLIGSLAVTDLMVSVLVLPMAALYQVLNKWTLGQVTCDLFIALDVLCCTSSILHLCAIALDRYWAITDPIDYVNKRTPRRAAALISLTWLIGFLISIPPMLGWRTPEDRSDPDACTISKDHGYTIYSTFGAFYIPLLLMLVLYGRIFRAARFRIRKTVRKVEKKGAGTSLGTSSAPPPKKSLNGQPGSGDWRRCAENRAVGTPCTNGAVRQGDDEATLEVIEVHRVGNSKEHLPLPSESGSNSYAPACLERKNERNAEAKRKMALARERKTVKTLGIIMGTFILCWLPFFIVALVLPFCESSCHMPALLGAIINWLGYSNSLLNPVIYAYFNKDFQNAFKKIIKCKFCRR

[3] = molecular target: Sigma non-opioid intracellular receptor 1 (Rattus norvegicus, UniProt Q9R0C9); test: compound was measured as affinity for sigma receptor labeled with [3H]-SKF- […] radioligand in slide-mounted slices
Rattus norvegicus [4] = test: In vivo activity administered intraperitoneally was determined by induction of catalepsy in rat at 30 mg/kg
[5] = molecular target: 5-hydroxytryptamine receptor 1B (Rattus norvegicus, UniProt P28564); test: compound was measured for affinity against 5-hydroxytryptamine 1B receptor labelled with [3H]5-HT radioligand in striatum tissue; assay type: tissue-based
Rattus norvegicus [6] = test: In vivo activity administered intraperitoneally was determined by induction of catalepsy in rat at 40 mg/kg
Rattus norvegicus [7] = test: In vivo inhibition of apomorphine induced stereotypy in rat by the compound administered intraperitoneally; assay type: functional; settings: ip
Rattus norvegicus [8] = test: In vivo activity was measured by the pole climb avoidance in rat; assay type: functional
D(1A) dopamine receptor = D(1A) dopamine receptor (Rattus norvegicus, UniProt P18901); test: compound was measured as affinity for dopamine receptor D1 labeled with [3H]-SCH- 23390 radioligand in striatum tissue; assay type: tissue-based
Rattus norvegicus [9] = test: In vivo activity administered orally was determined by intracranial self stimulation in rat; assay type: functional; settings: po
Rattus norvegicus [10] = test: In vivo inhibition of amphetamine induced stereotypy in rat by the compound administered intraperitoneally at […]; assay type: functional
Rattus norvegicus [11] = test: In vivo activity administered intraperitoneally was determined by pole climb escape failures in rat; assay type: functional; settings: ip
Rattus norvegicus [12] = test: In vivo activity administered intraperitoneally was determined by social interaction in rat at 1.0 mg/kg
[13] = molecular target: T2, Alpha adrenergic receptor 1A and 1B (Rattus norvegicus, UniProt P15823+P43140); test: compound was measured as affinity for Alpha-1 adrenergic receptor labeled with [3H]WB-4101 radioligand in whole brain tissue
T2 sequence (P15823 whole entry): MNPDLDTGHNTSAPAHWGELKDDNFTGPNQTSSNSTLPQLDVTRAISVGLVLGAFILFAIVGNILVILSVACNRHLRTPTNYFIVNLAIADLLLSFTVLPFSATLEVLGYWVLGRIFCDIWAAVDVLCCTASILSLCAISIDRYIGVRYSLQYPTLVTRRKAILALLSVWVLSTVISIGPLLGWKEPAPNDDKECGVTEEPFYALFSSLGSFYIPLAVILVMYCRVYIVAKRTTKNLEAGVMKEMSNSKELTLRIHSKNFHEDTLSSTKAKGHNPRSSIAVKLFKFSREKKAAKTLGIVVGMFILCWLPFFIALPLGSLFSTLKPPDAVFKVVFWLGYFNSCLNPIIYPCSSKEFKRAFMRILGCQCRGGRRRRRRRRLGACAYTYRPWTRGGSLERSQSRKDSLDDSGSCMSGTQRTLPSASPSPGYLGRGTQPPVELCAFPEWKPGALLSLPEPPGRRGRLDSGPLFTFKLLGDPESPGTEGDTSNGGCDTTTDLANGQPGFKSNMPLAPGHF
T2 sequence (P43140 whole entry): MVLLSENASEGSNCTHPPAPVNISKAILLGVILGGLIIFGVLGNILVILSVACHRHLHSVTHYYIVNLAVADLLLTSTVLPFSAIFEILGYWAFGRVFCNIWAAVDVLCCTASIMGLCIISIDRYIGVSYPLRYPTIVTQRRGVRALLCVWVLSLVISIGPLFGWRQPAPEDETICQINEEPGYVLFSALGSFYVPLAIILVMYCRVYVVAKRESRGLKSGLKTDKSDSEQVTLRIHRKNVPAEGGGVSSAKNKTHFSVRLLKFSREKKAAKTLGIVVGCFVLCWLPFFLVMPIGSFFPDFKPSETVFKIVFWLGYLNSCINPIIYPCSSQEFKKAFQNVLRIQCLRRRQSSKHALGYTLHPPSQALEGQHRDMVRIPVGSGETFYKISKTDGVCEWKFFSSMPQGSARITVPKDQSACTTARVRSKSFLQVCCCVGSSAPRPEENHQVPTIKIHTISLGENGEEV

Rattus norvegicus [14] = test: In vivo activity administered intraperitoneally was determined by intracranial self stimulation in rat; assay type: functional; settings: ip
Rattus norvegicus [15] = test: In vivo activity administered intraperitoneally was determined by induction of catalepsy in rat at […]; assay type: functional
Rattus norvegicus [16] = test: In vivo activity administered intraperitoneally was determined by pole climb avoidance in rat; assay type: functional; settings: ip
Rattus norvegicus [17] = test: In vivo activity administered intraperitoneally was determined by social interaction of rat at […]; assay type: functional
D(2) dopamine receptor = D(2) dopamine receptor (Rattus norvegicus, UniProt P61169); test: Compound was measured for affinity at Dopamine receptor D2 labeled with [3H]spiroperidol radioligand in striatum tissue; assay type: tissue-based
Rattus norvegicus [18] = test: In vivo activity administered intraperitoneally was determined by induction of catalepsy in rat; assay type: functional; settings: ip
Rattus norvegicus [19] = test: In vivo inhibition of amphetamine induced stereotypy in rat by the compound administered intraperitoneally; assay type: functional; settings: ip
Rattus norvegicus [20] = test: In vivo activity was measured by the intracranial self stimulation in rat; assay type: functional
Rattus norvegicus [21] = test: Activity administered intraperitoneally was determined by social interaction of rat at […]; assay type: functional

Sequence of D(2) dopamine receptor (P61169 whole entry): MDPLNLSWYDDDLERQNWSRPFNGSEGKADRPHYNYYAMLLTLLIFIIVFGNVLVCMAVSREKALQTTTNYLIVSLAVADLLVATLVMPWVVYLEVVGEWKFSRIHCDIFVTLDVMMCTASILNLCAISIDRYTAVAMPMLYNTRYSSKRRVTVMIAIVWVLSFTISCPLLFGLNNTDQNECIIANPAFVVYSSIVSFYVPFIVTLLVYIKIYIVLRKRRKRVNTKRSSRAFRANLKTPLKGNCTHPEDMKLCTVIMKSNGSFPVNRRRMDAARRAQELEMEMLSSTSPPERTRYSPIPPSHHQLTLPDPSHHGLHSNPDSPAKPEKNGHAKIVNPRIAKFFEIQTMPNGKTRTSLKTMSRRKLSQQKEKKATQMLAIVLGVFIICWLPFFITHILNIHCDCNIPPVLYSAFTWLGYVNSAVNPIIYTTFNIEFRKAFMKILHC
Sequence of D(1A) dopamine receptor (P18901 whole entry): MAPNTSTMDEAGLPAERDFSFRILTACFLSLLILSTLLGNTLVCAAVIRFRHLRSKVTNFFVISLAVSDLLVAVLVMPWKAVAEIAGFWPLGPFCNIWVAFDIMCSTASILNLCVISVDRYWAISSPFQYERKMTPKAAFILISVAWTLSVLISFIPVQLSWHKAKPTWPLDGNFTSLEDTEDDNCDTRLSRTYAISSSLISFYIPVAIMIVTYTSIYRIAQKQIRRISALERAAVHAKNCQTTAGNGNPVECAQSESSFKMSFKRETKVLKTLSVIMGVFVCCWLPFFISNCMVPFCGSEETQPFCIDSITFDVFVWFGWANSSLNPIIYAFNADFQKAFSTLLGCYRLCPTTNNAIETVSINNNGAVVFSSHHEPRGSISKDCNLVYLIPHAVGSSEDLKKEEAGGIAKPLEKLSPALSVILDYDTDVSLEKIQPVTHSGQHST
Sequence of Sigma non-opioid intracellular receptor 1 (Q9R0C9 whole entry): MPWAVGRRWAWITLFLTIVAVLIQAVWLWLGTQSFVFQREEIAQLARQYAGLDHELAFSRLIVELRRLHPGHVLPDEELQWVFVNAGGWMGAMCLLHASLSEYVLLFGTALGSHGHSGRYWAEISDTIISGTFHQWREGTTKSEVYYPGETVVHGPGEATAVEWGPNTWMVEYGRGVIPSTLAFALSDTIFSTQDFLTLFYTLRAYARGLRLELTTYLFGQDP
Sequence of 5-hydroxytryptamine receptor 1B (P28564 whole entry): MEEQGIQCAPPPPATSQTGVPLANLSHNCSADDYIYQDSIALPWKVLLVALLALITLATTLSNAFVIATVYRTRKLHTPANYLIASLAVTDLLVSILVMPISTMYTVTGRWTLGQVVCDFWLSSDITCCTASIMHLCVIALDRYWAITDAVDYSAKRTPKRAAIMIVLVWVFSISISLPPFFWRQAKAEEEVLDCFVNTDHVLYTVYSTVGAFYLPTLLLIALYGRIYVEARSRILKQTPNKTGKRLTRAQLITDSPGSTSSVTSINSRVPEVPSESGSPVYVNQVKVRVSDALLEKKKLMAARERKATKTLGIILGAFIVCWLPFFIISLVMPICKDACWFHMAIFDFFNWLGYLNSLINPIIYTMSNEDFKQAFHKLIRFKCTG

SMILES | IC50 [1] | IC50 [2] | ED50 (Mus musculus) | further results
O=C1CC2(CCCC2)CC(=O)N1OCCN1CCN(c2ncccn2)CC1 |  |  | > 20 mg/kg | 
O=C1CC2(CCCC2)CC(=O)N1OCCCN1CCN(c2cccc(Cl)c2)CC1 |  | 40 nM | > 20 mg/kg | 
O=C1CC2(CCCC2)CCN1OCCCN1CCN(c2nsc3ccccc23)CC1 | 0.01 µM | 30 nM | 17.8 mg/kg | 
COc1ccccc1N1CCN(CCCON2C(=O)CC3(CCCC3)CC2O)CC1 (stereo unspecified) |  | 60 nM | > 20 mg/kg | 
O=C1CC2(CCCC2)CC(=O)N1OCCCN1CCN(c2ccc3ccccc3n2)CC1 |  |  | > 20 mg/kg | 
O=C1CC2(CCCC2)CC(=O)N1OCCCN1CCN(C2=NS(=O)(=O)c3ccccc32)CC1 | > 20 µM | > 20000 nM | > 20 mg/kg | 
O=C1CC2(CCCC2)CC(=O)N1CCCCN1CCN(c2nsc3ccccc23)CC1 [TIOSPIRONE] |  |  | 0.84 mg/kg | ED50 (Rattus norvegicus [14]): 0.124 mg/kg; ED50 (Rattus norvegicus [7]): 3.7 mg/kg; Inhibition (Rattus norvegicus [15]): 67%; ED50 (Rattus norvegicus [16]): 0.93 mg/kg; ED50 (Rattus norvegicus [11]): 2.77 mg/kg; Inhibition (Rattus norvegicus [17]): 34%
Cc1cccc(N2CCN(CCCON3C(=O)c4ccccc4C3=O)CC2)c1 |  |  | > 20 mg/kg | 
O=C1c2ccccc2C(=O)N1OCCCN1CCN(c2cccc(C(F)(F)F)c2)CC1 |  |  | > 20 mg/kg | IC50 (D(2) dopamine receptor): > 20 µM
CN1CCN(C2=Nc3cc(Cl)ccc3Nc3ccccc32)CC1 [CLOZAPINE] |  |  | 8.1 mg/kg | ED50 (Rattus norvegicus [14]): 9.1 mg/kg; ED50 (Rattus norvegicus [16]): 13.1 mg/kg; ED50 (Rattus norvegicus [11]): > 80 mg/kg
Cc1cccc(N2CCN(CCCON3C(=O)CC4(CCCC4)CC3=O)CC2)c1C | 0.25 µM | 170 nM | 39.7 mg/kg | 
O=C1c2ccccc2C(=O)N1OCCCN1CCN(c2cccc(Cl)c2)CC1 |  |  | > 20 mg/kg | 
O=C(CCCN1CCC(O)(c2ccc(Cl)cc2)CC1)c1ccc(F)cc1 [HALOPERIDOL] |  |  | 0.25 mg/kg | ED50 (Rattus norvegicus [18]): 0.659 mg/kg; ED50 (Rattus norvegicus [19]): 0.215 mg/kg; ED50 (Rattus norvegicus [7]): 0.31 mg/kg; ED50 (Rattus norvegicus [16]): 0.53 mg/kg; ED50 (Rattus norvegicus [20]): 0.077 mg/kg; ED50 (Rattus norvegicus [11]): 7.3 mg/kg
Cc1nc2n(c(=O)c1CCN1CCC(c3noc4cc(F)ccc34)CC1)CCCC2 [RISPERIDONE] |  |  | 0.06 mg/kg | ED50 (Rattus norvegicus [14]): 0.13 mg/kg; ED50 (Rattus norvegicus [18]): 5.7 mg/kg; Inhibition (Rattus norvegicus [21]): 27%; ED50 (Rattus norvegicus [7]): 3.2 mg/kg; ED50 (Rattus norvegicus [16]): 0.48 mg/kg; ED50 (Rattus norvegicus [11]): 1.3 mg/kg
O=C1c2ccccc2C(=O)N1OCCCN1CCN(c2ccc3ccccc3n2)CC1 |  |  | > 20 mg/kg | 
CSc1cccc(N2CCN(CCCON3C(=O)c4ccccc4C3=O)CC2)c1 |  |  | > 20 mg/kg | 
COc1ccccc1N1CCN(CCCON2C(=O)CC3(CCCC3)CC2=O)CC1 | 1.19 µM | 110 nM | 11 mg/kg | 
Cc1ccccc1N1CCN(CCCON2C(=O)c3ccccc3C2=O)CC1 |  |  | > 20 mg/kg | 

Continued, in another order:

IC50 [1] | IC50 [2] | SMILES | ED50 (Mus musculus) | further results
2.7 µM | 70 nM | COc1ccccc1N1CCN(CCCON2CCC3(CCCC3)CC2=O)CC1 | > 20 mg/kg | 
 | > 20000 nM | O=C1c2ccccc2C(=O)N1OCCCN1CCN(c2nsc3ccccc23)CC1 | > 20 mg/kg | 
 | 50 nM | CSc1cccc(N2CCN(CCCON3C(=O)CC4(CCCC4)CC3=O)CC2)c1 | > 20 mg/kg | 
0.02 µM | 110 nM | O=C1CC2(CCCC2)CC(=O)N1OCCCN1CCN(c2nsc3ccccc23)CC1 | 5.7 mg/kg | IC50 [3]: 1100 nM; Catalepsy (Rattus norvegicus [4]): 33%; IC50 [5]: 5.53 µM; Catalepsy (Rattus norvegicus [6]): 83%; ED50 (Rattus norvegicus [7]): 35.4 mg/kg; ED50 (Rattus norvegicus [8]): 2.5 mg/kg; IC50 (D(1A) dopamine receptor): 6.6 µM; ED50 (Rattus norvegicus [9]): 12.5 mg/kg; Inhibition (Rattus norvegicus [10]): 17%; ED50 (Rattus norvegicus [11]): > 20 mg/kg; Increase (Rattus norvegicus [12]): 24%; IC50 [13]: 0.01 µM
 | 380 nM | O=C1CC2(CCCC2)CC(=O)N1OCCCN1CCN(c2ncccn2)CC1 | > 20 mg/kg | 
0.39 µM | 90 nM | Cc1cccc(N2CCN(CCCON3C(=O)CC4(CCCC4)CC3=O)CC2)c1 | 26.5 mg/kg | 
 | 220 nM | O=C1CC2(CCCC2)CC(=O)N1OCCCN1CCN(c2ccccc2Cl)CC1 | > 20 mg/kg | 
3.2 µM | 370 nM | COc1ccccc1N1CCN(CCON2C(=O)CC3(CCCC3)CC2=O)CC1 | > 20 mg/kg | 
 | 6900 nM | COc1ccccc1N1CCN(CCCON2C(=O)c3ccccc3C2=O)CC1 | > 20 mg/kg | IC50 (D(2) dopamine receptor): > 20 µM
0.24 µM | 970 nM | O=C1CC2(CCCC2)CC(=O)N1OCCN1CCN(c2nsc3ccccc23)CC1 | > 20 mg/kg | 
0.01 µM | 80 nM | O=C1CC2(CCCC2)CC(O)N1OCCCN1CCN(c2nsc3ccccc23)CC1 (stereo unspecified) | > 20 mg/kg | 
8.1 µM | 2200 nM | O=C1CC2(CCCC2)CC(=O)N1OCCCN1CCN(c2nc3ccccc3s2)CC1 | > 20 mg/kg | 
 | 30 nM | O=C1CC2(CCCC2)CC(=O)N1OCCCN1CCN(c2cccc(C(F)(F)F)c2)CC1 | > 20 mg/kg | 
